Measurements published in patent US9381164B2, “Silk nanospheres and microspheres and methods of making same” (TRUSTEES OF TUFTS COLLEGE, priority 2009, dated 2016).
Counter-ions that a name gives are not always drawn. Like-named read-outs stand apart in the source and are kept apart here.

Columns and labels:
[1] = Drug loading in silk spheres (supernatant absorbance at 555 nm); format: physicochemical; conditions: drug/silk 1:100; spheres from 1.0% silk/4.0% PVA blend
Method: Tetramethylrhodamine conjugated bovine serum albumin (TMR-BSA, M.w.=66,000 Da), tetramethylrhodamine conjugated dextran (TMR-Dextran, M.w.=10,000 Da), and rhodamine B (RhB, M.w.=479 Da) were used as model drugs to study the drug loading in silk nano- and micro spheres. Stock solutions of drugs were prepared with a concentration of 5 mg/ml in PBS buffer, pH 7.4, and stored at −20° C. Certain amount of stock solution of drugs was added to silk fibroin solution, before the silk fibroin solution was prepared into silk nano- and micro spheres, to reach to a drug/silk ratio of 1:100 (weight ratio). After mixing, the drug loaded silk fibroin solution was used to blend with PVA solution following the steps described in the Example 2, without the sonication treatment. A 5 wt % of silk and PVA concentrations and a silk/PVA ratio of 1:4 were used in this example. At this concentration, the silk/PVA film with a silk/PVA ratio of 1/4 can generate silk spheres with narrower size distribution, perhaps because the blend film is easier to dissolve in water forming homogeneous sphere suspension.
To determine the amount of drug loading in silk spheres, the supernatants collected from the centrifugation steps were subjected to absorbance measurement at 555 nm. The amount of drug was calculated based on a standard curve obtained at the same condition. The amount of drug in silk spheres was calculated from the difference between the total amount used and the amount remained in the supernatants. For each drug loading, at least three samples were prepared in order to obtain a standard deviation. The pellets from the last step of centrifugation were suspended in 2 ml of PBS buffer, pH 7.4, and used for the following confocal microscopy and drug release studies in Example 6.

[2] = Cumulative drug release from silk spheres in PBS; format: physicochemical; conditions: for In vitro drug release: Microspheres, PVA blend film
Method: Silk spheres loaded with model drugs as described in Example 5 were lyophilized. 10 mg of lyophilized silk spheres were suspended in 1 ml of PBS buffer, pH 7.4. The samples were incubated at room temperature under slow shaking condition. A cumulative drug release profile at each different time point (1, 4, 8.5, 24, 48, 120, 192, 342 hr) was determined by following the steps of (a) centrifuging the samples at 12,000 rpm for 10 min with a Sigma ISS-113 microcentrifuge (Sigma Chemical Co., St. Louis, Mo.); (b) carefully transferring the supernatants to empty tubes, subjecting the collected supernatants to the absorbance measurement at a wavelength of 555 nm, calculating the amount of model drug based on a standard curve, and comparing the data at the current time point with the original amounted drug loaded in the spheres; (c) suspending the precipitated pellets in 1 ml of PBS buffer; and (d) repeating the steps of (a)-(c) at each time point to obtain a cumulative drug release profile. For each model drug, at least three samples were prepared in order to obtain a standard deviation.

[3] = cited from earlier work
[4] = Microspheres, Vibrational splitting of laminar jet

Compound: CCN(CC)c1ccc2c(-c3ccccc3C(=O)O)c3ccc(=[N+](CC)CC)cc-3oc2c1.[Cl-] [RhB, rhodamine B]
- loading efficiency [1]: approximately 95%
- In vitro drug release [2]: >4 weeks
- initial burst release ([2]; PBS pH 7.4, room temperature): about 1%

Compound: O=C(O)c1ccccc1O [Salicylic acid]
- In vitro drug release [3, 4]: 1 days

Compound: CC(C)NCC(O)COc1cccc2ccccc12 (centres unmarked) [propranolol hydrochloride]
- In vitro drug release [3, 4]: 20 days

Compound: Cn1c(=O)c2[nH]cnc2n(C)c1=O [theophylline]
- In vitro drug release ([3]; Layer-by-layer coatings, Coat drug tablet): >0.33 days

Compound: Dextran
- In vitro drug release [2]: 7 days

Compound: IGF-I: insulin like growth factor loaded in silk delivery systems
- In vitro drug release [3, 4]: >7 weeks
- In vitro drug release ([3]; Porous sponge, Drug encapsulated): >4 weeks

Compound: Tetramethylrhodamine conjugated bovine serum albumin [TMR-BSA]
- loading efficiency [1]: about 51%
- In vitro drug release [2]: >4 weeks
- initial burst release ([2]; PBS pH 7.4, room temperature): about 1%

Compound: tetramethylrhodamine conjugated dextran [TMR-dextran]
- loading efficiency [1]: approximately 1.2%
- total loading released within 2 weeks ([2]; PBS pH 7.4, room temperature, within 2 weeks): more than 60%
